Measurements published in patent US9499550B2 (BRISTOL-MYERS SQUIBB COMPANY, priority 2012, dated 2016).
Where two headings read alike, the source gives them in different places.

Columns and labels:
[1] = system: HCV genotype 1a (H77 strain) replicon in HUH-7 cells; assay: HCV replicon luciferase reporter assay, genotype 1a; type: cell-based; conditions: Hepatitis C virus, Huh-7, 72 h, 3 days incubation
Procedure, shortened: (§1)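 Replicon inhibition for both genotypes was measured as Renilla luciferase signal (EnduRen, 7.5 μM final, 2 h) after 3-day, 37° C exposure of replicon-bearing HUH-7 cells in 4% FCS DMEM, 0.5% DMSO. The 1b construct carries S1179I; the 1a H77 construct carries P1496L and S2204I. Twenty-point, 3-fold dilutions were fitted four-parametrically for EC50, and CC50 was taken from multiplexed Cell Titer-Blue.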

[2] = system: HCV genotype 1b (Con1) replicon in HUH-7 cells; assay: HCV replicon luciferase reporter assay, genotype 1b; type: cell-based; conditions: Hepatitis C virus, Huh-7, 72 h, 3 days incubation
Procedure, shortened: as §1

[3] = HCV genotype 1a replicon luciferase, read-out: LE_1a (EC50, range)
[4] = HCV genotype 1b replicon luciferase, read-out: LE_1b (EC50, range)
[5] = GETYPE1A, HCV genotype 1a replicon luciferase, read-out: LE_1a (EC50, range)
[6] = GETYPE1B, HCV genotype 1b replicon luciferase, read-out: LE_1b (EC50, range)

SMILES	EC50 [1, 3] [nM]	EC50 [2, 4] [nM]	EC50 [1, 5] [nM]	EC50 [2, 6] [nM]	other results
C[C@H]1CC/C=C\[C@@H]2C[C@@]2(C(=O)NS(=O)(=O)C2(CF)CC2)NC(=O)[C@@H]2C[C@@H](Oc3nc4c(c5ccccc35)OCCC4)CN2C(=O)[C@@H](NC(=O)OC(C)(C)C(F)(F)F)[C@H](C)C1 [Compound 6029, 1,1,1-trifluoro-2-methylpropan-2-yl((2R,6S,7R,9S,13aS,14aR,16aS,Z)-2-((3,4-dihydro-2H-pyrano[3,2-c]isoquinolin-6-yl)oxy)-14a-(((1-(fluoromethyl)cyclopropyl)sulfonyl)carbamoyl)-7,9-dimethyl-5,16-dioxo-1,2,3,5,6,7,8,9,10,11,13a,14,14a,15,16,16a-hexadecahydrocyclopropa[e]pyrrolo[1,2-a][1,4]diazacyclopentadecin-6-yl)carbamate]	4.82 to 103	4.82 to 103	–	–	–
COc1ccc2c(O[C@@H]3C[C@H]4C(=O)N[C@]5(C(=O)NS(=O)(=O)C6CC6)C[C@H]5/C=C\CC[C@H](C)C[C@@H](C)[C@H](NC(=O)OC(C)(C)C(F)(F)F)C(=O)N4C3)nc(-c3ccc(OC(C)C)nc3)cc2c1 [Compound 5214, 1,1,1-trifluoro-2-methylpropan-2-yl((2R,6S,7R,9S,13aS,14aR,16aS,Z)-14a-((cyclopropylsulfonyl)carbamoyl)-2-((3-(6-isopropoxypyridin-3-yl)-6-methoxyisoquinolin-1-yl)oxy)-7,9-dimethyl-5,16-dioxo-1,2,3,5,6,7,8,9,10,11,13a,14,14a,15,16,16a-hexadecahydrocyclopropa[e]pyrrolo[1,2-a][1,4]diazacyclopentadecin-6-yl)carbamate]	4.82 to 103	< 5.46	–	–	–
COc1ccc2nc(C(F)(F)F)c(O[C@@H]3C[C@H]4C(=O)N[C@]5(C(=O)NS(=O)(=O)C6(C)CC6)C[C@H]5/C=C\CC[C@@H](C)C[C@@H](C)[C@H](NC(=O)OC(C)(C)C(F)(F)F)C(=O)N4C3)nc2c1 [Compound 4195]	–	–	< 5.46	< 5.46	–
CC[C@@H]1C[C@H](C)CC/C=C\[C@@H]2C[C@@]2(C(=O)NS(=O)(=O)C2(C)CC2)NC(=O)[C@@H]2C[C@@H](Oc3nc4c(c5ccccc35)CCCO4)CN2C(=O)[C@H]1NC(=O)OC(C)(C)C(F)(F)F [Compound 6054, 1,1,1-trifluoro-2-methylpropan-2-yl((2R,6S,7R,9R,13aS,14aR,16aS,Z)-2-((2,3-dihydro-1H-pyrano[2,3-c]isoquinolin-6-yl)oxy)-7-ethyl-9-methyl-14a-(((1-methylcyclopropyl)sulfonyl)carbamoyl)-5,16-dioxo-1,2,3,5,6,7,8,9,10,11,13a,14,14a,15,16,16a-hexadecahydrocyclopropa[e]pyrrolo[1,2-a][1,4]diazacyclopentadecin-6-yl)carbamate]	1.01 to 5	0.1 to 0.5	–	–	–
CC[C@@H]1C[C@H](C)CC/C=C\[C@@H]2C[C@@]2(C(=O)NS(=O)(=O)C2(CF)CC2)NC(=O)[C@@H]2C[C@@H](Oc3nccc4c5c(ccc34)OCCO5)CN2C(=O)[C@H]1NC(=O)OC(C)(C)C [Compound 5425, tert-butyl ((2R,6S,7R,9R,13aS,14aR,16aS,Z)-2-((2,3-dihydro-[1,4]dioxino[2,3-f]isoquinolin-7-yl)oxy)-7-ethyl-14a-(((1-(fluoromethyl)cyclopropyl)sulfonyl)carbamoyl)-9-methyl-5,16-dioxo-1,2,3,5,6,7,8,9,10,11,13a,14,14a,15,16,16a-hexadecahydrocyclopropa[e]pyrrolo[1,2-a][1,4]diazacyclopentadecin-6-yl)carbamate]	1.01 to 5	1.01 to 5	–	–	–
COc1cc2cc(-c3ccc(OC(C)C)cc3)nc(O[C@@H]3C[C@H]4C(=O)N[C@]5(C(=O)NS(=O)(=O)C6(C)CC6)C[C@H]5/C=C\CC[C@H](C)C[C@@H](C)[C@H](NC(=O)OC(C)(C)C)C(=O)N4C3)c2cc1F [Compound 3183, tert-butyl ((2R,6S,7R,9S,13aS,14aR,16aS,Z)-2-((7-fluoro-3-(4-isopropoxyphenyl)-6-methoxyisoquinolin-1-yl)oxy)-7,9-dimethyl-14a-(((1-methylcyclopropyl)sulfonyl)carbamoyl)-5,16-dioxo-1,2,3,5,6,7,8,9,10,11,13a,14,14a,15,16,16a-hexadecahydrocyclopropa[e]pyrrolo[1,2-a][1,4]diazacyclopentadecin-6-yl)carbamate]	–	–	–	–	EC50 ([1]; HCV genotype 1a replicon luciferase assay, range class, read-out: LE_1a (EC50, range)): 4.82 to 103 nM; EC50 ([2]; HCV genotype 1b replicon luciferase assay, range class, read-out: LE_1b (EC50, range)): < 5.46 nM
COc1ccc2ncc(O[C@@H]3C[C@H]4C(=O)N[C@]5(C(=O)NS(=O)(=O)C6(CF)CC6)C[C@H]5/C=C\CC[C@@H](C)C[C@@H](C)[C@H](NCC(F)F)C(=O)N4C3)nc2c1 [Compound 4170]	> 87.4	4.82 to 103	–	–	–
C[C@H]1CC/C=C\[C@@H]2C[C@@]2(C(=O)NS(=O)(=O)C2(C)CC2)NC(=O)[C@@H]2C[C@@H](Oc3nccc4c5c(ccc34)N(C)CCO5)CN2C(=O)[C@@H](NC(=O)OC(C)(C)C)[C@H](C)C1 [Compound 5293, tert-butyl ((2R,6S,7R,9S,13aS,14aR,16aS,Z)-7,9-dimethyl-2-((4-methyl-3,4-dihydro-2H-[1,4]oxazino[2,3-f]isoquinolin-7-yl)oxy)-14a-(((1-methylcyclopropyl)sulfonyl)carbamoyl)-5,16-dioxo-1,2,3,5,6,7,8,9,10,11,13a,14,14a,15,16,16a-hexadecahydrocyclopropa[e]pyrrolo[1,2-a][1,4]diazacyclopentadecin-6-yl)carbamate]	4.82 to 103	< 5.46	–	–	–
COc1cc2ccnc(O[C@@H]3C[C@H]4C(=O)N[C@]5(C(=O)NS(=O)(=O)C6(C)CC6)C[C@H]5/C=C\CC[C@@H](C)C[C@@H](C)[C@H](NC(=O)OC(C)(C)C)C(=O)N4C3)c2cc1OC [Compound 5379, tert-butyl ((2R,6S,7R,9R,13aS,14aR,16aS,Z)-2-((6,7-dimethoxyisoquinolin-1-yl)oxy)-7,9-dimethyl-14a-(((1-methylcyclopropyl)sulfonyl)carbamoyl)-5,16-dioxo-1,2,3,5,6,7,8,9,10,11,13a,14,14a,15,16,16a-hexadecahydrocyclopropa[e]pyrrolo[1,2-a][1,4]diazacyclopentadecin-6-yl)carbamate]	1.01 to 5	1.01 to 5	–	–	–
CC[C@@H]1C[C@H](C)CC/C=C\[C@@H]2C[C@@]2(C(=O)NS(=O)(=O)C2CC2)NC(=O)[C@@H]2C[C@@H](Oc3cnnc4cc(OC)ccc34)CN2C(=O)[C@H]1NC(=O)OC(C)(C)C(F)(F)F [Compound 4327]	–	–	5.01 to 35	5.01 to 35	–
CC[C@@H]1C[C@@H](C)CC/C=C\[C@@H]2C[C@@]2(C(=O)NS(=O)(=O)C2(CO)CC2)NC(=O)[C@@H]2C[C@@H](Oc3nccc4cc(OC)c(F)cc34)CN2C(=O)[C@H]1NC(=O)OC(C)(C)C(F)(F)F [Compound 4326]	–	–	35 to 620	35 to 620	–
CC[C@@H]1C[C@H](C)CC/C=C\[C@@H]2C[C@@]2(C(=O)NS(=O)(=O)C2(C)CC2)NC(=O)[C@@H]2C[C@@H](Oc3nc(OC)cc4cc(F)ccc34)CN2C(=O)[C@H]1NC(=O)OC(C)(C)C(F)(F)F [Compound 3220, 1,1,1-trifluoro-2-methylpropan-2-yl((2R,6S,7R,9R,13aS,14aR,16aS,Z)-7-ethyl-2-((6-fluoro-3-methoxyisoquinolin-1-yl)oxy)-9-methyl-14a-(((1-methylcyclopropyl)sulfonyl)carbamoyl)-5,16-dioxo-1,2,3,5,6,7,8,9,10,11,13a,14,14a,15,16,16a-hexadecahydrocyclopropa[e]pyrrolo[1,2-a][1,4]diazacyclopentadecin-6-yl)carbamate]	1.01 to 5	0.1 to 0.5	–	–	–
CC[C@@H]1C[C@H](C)CC/C=C\[C@@H]2C[C@@]2(C(=O)NS(=O)(=O)C2CC2)NC(=O)[C@@H]2C[C@@H](Oc3nc(OC)cc4ccccc34)CN2C(=O)[C@H]1NC(=O)OC(C)(C)C(F)(F)F [Compound 6003, 1,1,1-trifluoro-2-methylpropan-2-yl((2R,6S,7R,9R,13aS,14aR,16aS,Z)-14a-((cyclopropylsulfonyl)carbamoyl)-7-ethyl-2-((3-methoxyisoquinolin-1-yl)oxy)-9-methyl-5,16-dioxo-1,2,3,5,6,7,8,9,10,11,13a,14,14a,15,16,16a-hexadecahydrocyclopropa[e]pyrrolo[1,2-a][1,4]diazacyclopentadecin-6-yl)carbamate]	< 5.46	< 5.46	–	–	EC50 ([1]; HCV genotype 1a replicon luciferase, read-out: LE_1a (EC50)): 1.33 nM; EC50 ([2]; HCV genotype 1b replicon luciferase, read-out: LE_1b (EC50)): 0.22 nM
COc1ccc2c(O[C@@H]3C[C@H]4C(=O)N[C@]5(C(=O)NS(=O)(=O)C6(C)CC6)C[C@H]5/C=C\CC[C@@H](C)C[C@@H](C)[C@H](NC(=O)OC(C)(C)C(F)(F)F)C(=O)N4C3)ncc(-c3ccc(OC)nc3)c2c1 [Compound 4178]	–	–	< 5.46	< 5.46	–
COc1cc2c(OC)cnc(O[C@@H]3C[C@H]4C(=O)N[C@]5(C(=O)NS(=O)(=O)C6(CO)CC6)C[C@H]5/C=C\CC[C@@H](C)C[C@@H](C)[C@H](NC(=O)OC(C)(C)C(F)(F)F)C(=O)N4C3)c2cc1F [Compound 4238]	–	–	4.82 to 103	4.82 to 103	–
